Test results as given in article PMC5326799, “Discovery of Compounds that Positively Modulate the High Affinity Choline Transporter” (Frontiers in Molecular Neuroscience, 2017).
Entries after “also recorded” stand apart in the source; their conditions may differ. Read-outs that look alike come from different tables or passages of the source.

Key:
[1] = target: T1, high affinity choline transporter (CHT) (Homo sapiens, UniProt Q9GZV3); assay: Radiometric [3H]Choline uptake assay (scintillation proximity) in HEK cells expressing CHT; type: cell-based; conditions: for CHT modulator classification in radiometric assay: single point 1 and 10 μM, actives in 10-point dose response; for 3H-choline uptake % effect 1 μM: 1 μM compound; for 3H-choline uptake % effect 1 μM / 3H-choline uptake % effect 10 μM: 100% = 10 μM Staurosporine, 0% = DMSO; for 3H-choline uptake % effect 10 μM: 10 μM compound
T1 construct: expressed in transfected cells; host or cells: HEK-293, lentiviral transduction, single-cell clone CHT-WT4
T1 sequence (Q9GZV3 1-580): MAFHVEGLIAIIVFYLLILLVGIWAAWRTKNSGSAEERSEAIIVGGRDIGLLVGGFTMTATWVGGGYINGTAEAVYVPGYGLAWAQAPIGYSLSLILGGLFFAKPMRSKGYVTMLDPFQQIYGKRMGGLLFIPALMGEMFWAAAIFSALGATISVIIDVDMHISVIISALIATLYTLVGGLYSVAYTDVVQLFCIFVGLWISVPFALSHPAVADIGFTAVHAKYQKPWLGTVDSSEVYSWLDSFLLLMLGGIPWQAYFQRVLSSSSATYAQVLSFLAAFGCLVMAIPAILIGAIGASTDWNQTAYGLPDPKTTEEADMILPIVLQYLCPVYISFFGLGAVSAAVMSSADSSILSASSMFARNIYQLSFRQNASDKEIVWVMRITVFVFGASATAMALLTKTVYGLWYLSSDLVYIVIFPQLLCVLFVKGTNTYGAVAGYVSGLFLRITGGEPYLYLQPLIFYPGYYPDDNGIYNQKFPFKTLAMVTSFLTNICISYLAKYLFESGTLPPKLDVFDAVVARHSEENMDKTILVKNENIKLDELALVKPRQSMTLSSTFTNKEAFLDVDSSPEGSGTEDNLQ
Protocol: Uptake of [^3H]Choline (American Radiochemicals; ART 0197; 1,000 Ci/vial; Specific Activity 60–90 Ci/mmol) was measured in HEK cells expressing the high affinity choline transporter (CHT), clone WT4. Cells were plated at 50,000 cells /well in 200 μL culture media on a PDL coated Cytostar-T 96 well plate (Perkin Elmer) 24 h prior to assay. On the day of assay, following two washes and a 30 min pre-incubation at 37°C in 50 μL Na(−) free buffer (0.54 mM KCl, 1.3 mM CaCl2, 0.53 mM MgCl2, 0.4 mM MgSO4, 0.37 mM KH2PO4, 240 mM Sucrose, 4.4 mM Tris-phosphate, 5.5 mM Glycine, 5.6 mM D-Glucose; pH 6.5 with KOH), 25 μL 4X control or test compounds in Na(−) buffer were added to the cells. […] Final DMSO concentration was 0.25%. Following a 30 min incubation at 37°C, 25 μL [^3H]Choline diluted to 320 nM (80 nM final concentration) was added in Na(+) buffer (0.54 mM KCl, 1.3 mM CaCl2, 0.53 mM MgCl2, 0.4 mM MgSO4, 0.37 mM KH2PO4, 138 mM NaCl, 0.28 mM Na2HPO4, 5.5 mM Glycine, 5.6 mM D-Glucose; pH 6.5 with KOH). Plates were sealed with TopSeals (Perkin Elmer) and incubated in darkness for 3 h at room temperature before reading using a Wallac Microbeta, 1 min/well.
A preponderance of literature precedent for measuring high affinity choline uptake (HACU) utilizes a radiometric assay to measure [^3H]Choline transport in preparations. […] A number of parameters were assessed in assay development including cell seeding density, time of assay post-seeding, plate coating, buffer composition, read time and choline concentration.

CHT [2] = target: T2, CHT (Homo sapiens, UniProt Q9GZV3); conditions: for D9-choline uptake % effect 1 μM: 1 μM compound; for D9-choline uptake % effect 1 μM / D9-choline uptake % effect 10 μM: HEK293 CHT-WT4, DMSO negative control, 10 μM STS positive control; for D9-choline uptake % effect 10 μM: 10 μM compound
T2 sequence (Q9GZV3 1-580): T1 sequence (Q9GZV3 1-580)

CHT [3] = target: T2, CHT; assay: cell-based
CHT [4] = target: T2, CHT; assay: Live cell anti-FLAG immunolabeling of CHT cell surface localization in CHT-WT4 cells; type: cell-based; set-up: expressed in transfected cells; host or cells: HEK-293, lentiviral transduction, single-cell clone CHT-WT4; conditions: 1 or 10 μM for 1 h, qualitative observations
Protocol: Media was removed and cells were washed once with HBSS (+/+). 1 μg/mL Anti-FLAG antibody (F3165, Sigma) was diluted in HBSS (+/+) and added to the cellular monolayer for 30 mins. After incubation, cells were washed three times with HBSS (+/+) followed by incubation with 1:5,000 AF488 labeled secondary antibody (LifeTech) diluted in HBSS (+/+) for 30 min. After three washes, cells were fixed with 4% paraformaldehyde in HBSS (+/+) for 15 min. Nuclei were counterstained with the nuclear dye Hoechst. All images were captured and analyzed on an epifluorescent microsope or Cellomics platform.
Thus, understanding compound effects on CHT density and activation state in the synaptic membrane may aid interpretation of the effects on cholinergic neurotransmission. Conventional methods such as cell surface biotinylation present challenges in terms of the requirement of large quantities of cells and low throughput. […] Our CHT overexpression construct contains a FLAG tag on the N-terminus which we sought to utilize with antibody detection in non-permeabilized cells. […] We proceeded to investigate the effect of compound treatment in more detail. Cells were incubated with compounds at 1 or 10 μM for 1 h before immunolabeling and visualization.

[5] = target: T1, high affinity choline transporter (CHT); assay: Radiometric [3H]Choline uptake assay (scintillation proximity) in HEK cells expressing CHT; type: cell-based; conditions: HEK293, read-out: % inhibition of [3H]Choline uptake by HC-3, 1 μM
SH-SY5Y cell line = assay: [3H]Choline uptake in untransformed SH-SY5Y cell line; type: cell-based; conditions: 1 μM HC-3, 10 μM STS
Source text: (§1) Supplementary file Image1.JPEG: Supplementary Figure 1 [^3H] […] Click here for additional data file.

[6] = target: high affinity choline transporter (CHT); set-up: method as in earlier work; conditions: ref Okuda and Haga, 2000, Okuda et al., cited from earlier work
CHT [7] = target: T2, CHT; assay: SURFE2R solid supported membrane (SSM) electrophysiology on CHT-WT4 membrane fragments; type: biochemical; set-up: expressed in transfected cells; host or cells: HEK-293, lentiviral transduction, single-cell clone CHT-WT4
Protocol: A single cell clone of HEK293 overexpressing CHT (CHT-WT4) cells was used to generate membrane fragments to assess on the SURFE^2R platform. Cells were grown to 80% confluence and harvested. The membrane fraction was collected by ultracentrifugation and the plasma membranes were isolated by density gradient centrifugation (Schulz et al., [2008]).
All experiments were performed on the SURFE^2R N1 device and the matching N1 sensor blanks (Nanion Technologies GmbH, Munich). The sensor blanks include a 3 mm diameter gold surface inside a small well coated by incubating 50 μL of 0.5 mM 1-octadecanethiol dissolved in isopropanol for 30 min, rinsed once with isopropanol and twice with water (ddH2O) and dried for 30 min at room temperature.
7.5 μg/μL DPhPC (Avanti Polar Lipids) was dissolved in n-Decane. 1.5 μL were added onto the thiol-coated gold surface. Immediately, 80 μL of potassium buffer was added carefully. The CHT membrane preparation was diluted 1:10 with potassium buffer and sonicated. Eight microliter were added directly onto the SSM by submerging the pipette into the buffer and the sensors were centrifuged for 30 min at 2,200 × g. The quality of the SSM was controlled by determination of conductance σ and capacitance C. The SURFE^2R N1 device includes default functions to perform these measurements. Sensors should have a conductance below 3 nS and capacitance below 20 nF.
Prepared sensors were inserted into the faraday cage of the SURFE^2R N1 device and buffers applied via its automatic perfusion system, allowing rapid buffer exchange in a continuous liquid flow. The following buffer addition sequence was used for all experiments: Sodium buffer was applied for 2 s with a flow rate of 200 μl/s to establish a sodium gradient over the membrane. […] During those 6 s the current response was recorded. […]
Raw data were exported as ASCII files, analysis was performed using the scientific graphing and data analysis program IGOR Pro 6 (WaveMetrics, Portland, USA). The evaluated peak currents were determined using a peak detection algorithm. […]

SK-N-FI cell line = assay: [3H]Choline uptake in untransformed SK-N-FI cell line; type: cell-based; conditions: 1 μM HC-3, 10 μM STS
Source text: as §1

[8] = EC50 estimate, [3H]Choline uptake (positive modulators), CHT-WT4 cells, 10-point dose response
[9] = PAM compounds, 10-point dose response, HEK293 CHT-WT4, n.d. = not detected, read-out: 3H-choline uptake IC50 or EC50
[10] = inhibitor/NAM compounds, 10-point dose response, HEK293 CHT-WT4, read-out: 3H-choline uptake IC50 or EC50

Question: Which EC50 [1, 8] does the source give for O=C(CC1=CCCCC1)Nc1ccnc2ccccc12 [Compound 1] here?
Answer: 3e-07 M

Question: And the EC50 [1, 9]?
Answer: 2.75e-07 M

Question: What about the “CHT modulator classification in radiometric assay” value (shortened to “CHT modulator classification”) [1] of the same compound?
Answer: positive allosteric CHT modulators

Question: For O=C(Cn1c(=O)oc2ccccc21)Nc1ccnc2ccccc12 [Compound 2], which EC50 [1, 8] is on record?
Answer: 4e-07 M

Question: And the EC50 [1, 9]?
Answer: 4.16e-07 M

Question: And the “CHT modulator classification” value [1]?
Answer: positive allosteric CHT modulators

Question: For NC(=O)N1C(=O)C(C(=O)Cc2ccccc2)c2cc(F)ccc21 (stereo not drawn) [Compound 3], which EC50 ([1]; 3H-choline uptake IC50 or EC50(M), PAM compounds, 10-point dose response, HEK293 CHT-WT4, n.d. = not detected) is on record?
Answer: 4.51e-06 M

Question: And the EC50 [1, 8]?
Answer: 4.5e-06 M

Question: What about the “CHT modulator classification” value [1] of the same compound?
Answer: positive allosteric CHT modulators

Question: With O=C(NCc1ccc(Cl)cc1)c1ccc2snc(N3CCNCC3)c2c1 [Compound 4] as the compound, how does the IC50 [1, 10] read?
Answer: 1540 nM

Question: And the “CHT modulator classification” value [1]?
Answer: negative allosteric modulators

Question: And the “D9-choline uptake % effect 1 μM” value (CHT [2])?
Answer: 12.3%

Question: What about the “D9-choline uptake % effect 10 μM” value (CHT [2]) of the same compound?
Answer: 118.1%

Question: What about the IC50 (CHT [3]) of the same compound?
Answer: 3130 nM

Question: For O=C(NCc1ccc(Cl)cc1)c1cn2c(N3CCNCC3)nccc2n1 [Compound 5], which IC50 [1, 10] is on record?
Answer: 670 nM

Question: And the “CHT modulator classification” value [1]?
Answer: negative allosteric modulators

Question: With CNC(=O)C1CCCN1c1nc(Cc2ccccc2F)cc(Nc2cc(C3CC3)[nH]n2)n1 (stereo not drawn) [Compound 6] as the compound, how does the “3H-choline uptake % effect 1 μM” value ([1]; HEK293 CHT-WT4) read?
Answer: 3.6%

Question: And the “3H-choline uptake % effect 10 μM” value ([1]; HEK293 CHT-WT4)?
Answer: 23.6%

Question: And the “D9-choline uptake % effect 1 μM” value (CHT [2])?
Answer: 60.8%

Question: And the “D9-choline uptake % effect 10 μM” value (CHT [2])?
Answer: 91.6%

Question: What about the “Effect on cell surface localization of CHT” value (“Effect … of CHT” below) (CHT [4]) of the same compound?
Answer: no effects; also recorded: no apparent effect

Question: What about the EC50 (CHT [3]) of the same compound?
Answer: 2050 nM

Question: Which results are given for CNC(=O)C1CCC(Nc2nc(Nc3ccc(S(C)(=O)=O)cc3)ncc2C(F)(F)F)C1 (stereo not drawn) [Compound 7]?
Answer: 3H-choline uptake % effect 1 μM ([1]; HEK293 CHT-WT4): −2.4%; 3H-choline uptake % effect 10 μM ([1]; HEK293 CHT-WT4): 26.7%; D9-choline uptake % effect 1 μM (CHT [2]): 46.4%; D9-choline uptake % effect 10 μM (CHT [2]): 80.8%; Effect on cell surface localization of CHT (CHT [4]): no effects; also recorded: no apparent effect; EC50 (CHT [3]): 2490 nM

Question: For N#Cc1c[nH]c2ncnc(N3CCC4(CC3)CNCc3ccc(C(F)(F)F)nc34)c12 [Compound 8], which “3H-choline uptake % effect 1 μM” value ([1]; HEK293 CHT-WT4) is on record?
Answer: 9.0%

Question: And the “3H-choline uptake % effect 10 μM” value ([1]; HEK293 CHT-WT4)?
Answer: 52.6%

Question: What about the “D9-choline uptake % effect 1 μM” value (CHT [2]) of the same compound?
Answer: 24.5%

Question: And the “D9-choline uptake % effect 10 μM” value (CHT [2])?
Answer: 80.2%

Question: And the “Effect … of CHT” value (CHT [4])?
Answer: increased cell surface localization; also recorded: distinct increase in apparent cell surface localization

Question: What about the EC50 (CHT [3]) of the same compound?
Answer: 5100 nM

Question: Which “3H-choline uptake % effect 1 μM” value ([1]; HEK293 CHT-WT4) does the source give for Cn1ncc2nc(-c3ccnc(N)c3)nc(N3CCNCC3(C)C)c21 [Compound 9] here?
Answer: 24.4%

Question: What about the “3H-choline uptake % effect 10 μM” value ([1]; HEK293 CHT-WT4) of the same compound?
Answer: 100.0%

Question: What about the “D9-choline uptake % effect 1 μM” value (CHT [2]) of the same compound?
Answer: 30.5%

Question: And the “D9-choline uptake % effect 10 μM” value (CHT [2])?
Answer: 64.0%

Question: What about the “Effect … of CHT” value (CHT [4]) of the same compound?
Answer: increased cell surface localization; also recorded: distinct increase in apparent cell surface localization

Question: What about the EC50 (CHT [3]) of the same compound?
Answer: 5760 nM

Question: What does the source list for C[N+]1(C)CCOC(O)(c2ccc(-c3ccc(C4(O)C[N+](C)(C)CCO4)cc3)cc2)C1 (stereo not drawn) [HC-3, hemicholinium-3, reference compound]?
Answer: inhibition at 1 µM ([5]; CHT-WT5 clone): ~61%; inhibition at 1 µM ([5]; CHT-WT Pool): ~69%; IC50 [1]: 116 nM; inhibition at 1 µM ([1]; HEK293, read-out: % inhibition of [3H]Choline uptake by HC-3, 1 μM, CHT-WT4 clone): ~80%; Effect on cell surface localization of CHT (CHT [4]): increase in cell surface localization; also recorded: increase transporter density on the cell surface; Effect on [3H]Choline uptake (SH-SY5Y cell line): No effect; Ki ([6]; Apparsundaram et al., 2001, read-out: Ki, inhibition of choline uptake): 1 to 5 nM; IC50 (CHT [3]): 5.6 nM; IC50 (CHT [7]): 20.4 nM; Effect on [3H]Choline uptake (SK-N-FI cell line): No effect

Question: Which results are given for Cc1oc2nc3c(c(NC(=O)CN4CCCC4=O)c2c1C)CCCC3 [MKC-231, coluracetam, reference compound]?
Answer: Impact on CHT mediated transport, [3H]Choline uptake ([1]; CHT-WT4 cells, 10-point dose response): unable to see any impact; Impact on CHT mediated transport, [3H]Choline uptake ([1]; CHT-WT4 cells, 10-point dose response, listed as MKC231): no apparent effect; Effect on D9-choline uptake (CHT [2]; 10-point dose response): no apparent effect; Effect on cell surface localization of CHT (CHT [4]): no apparent effect; Effect on CHT current (SURFE2R) (CHT [7]; CHT-WT4 membrane preparations): not able to detect any effect

Question: What does the source list for COc1ccc(C(=O)NCc2cc(C(C)C)no2)cc1OC1CCN(C)CC1 [ML-352, reference compound]?
Answer: D9-choline uptake % effect 1 μM (CHT [2]): 96.3%; D9-choline uptake % effect 10 μM (CHT [2]): 104.1%; Effect on cell surface localization of CHT (CHT [4]): increase in cell surface localization; also recorded: increase transporter density on the cell surface

Question: Which results are given for C[N+](C)(C)CCO [choline, Choline Chloride]?
Answer: Km ([6]; Apparsundaram et al., 2001, read-out: Km, high-affinity sodium-dependent choline uptake): ~2 µM; EC50 (CHT [7]): 25000 nM
